PubChem BioAssay (NCI)
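Cells were grown in 96-well plates and exposed to each compound for 48 hours at five concentrations; endpoints were interpolated linearly between bracketing concentrations, or set to the highest concentration if not reached. The concentration for 50% growth inhibition is given as GI50. TGI: total growth inhibition.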

How the values were obtained:
Assay in all cases: NCI-60 cell line screen, 48 h
[1] = test system: COLO 205 colon
[2] = test system: HT29 colon
[3] = test system: SK-MEL-28 melanoma
[4] = test system: NCI-H522 lung
[5] = test system: SF-268 CNS
[6] = test system: U251 CNS
[7] = test system: OVCAR-3 ovarian
[8] = test system: HL-60(TB) leukemia
[9] = test system: CCRF-CEM leukemia
[10] = test system: MALME-3M melanoma
[11] = test system: HS 578T breast
[12] = test system: A549 NSCLC
[13] = test system: NCI-H460 lung
[14] = test system: HOP-92 NSCLC
[15] = test system: MDA-MB-231 breast
[16] = test system: NCI/ADR-RES ovarian
[17] = test system: MCF7 breast
[18] = test system: SK-OV-3 ovarian
[19] = test system: K-562 leukemia
[20] = test system: NCI-H226 lung
[21] = test system: BT-549 breast
[22] = test system: EKVX NSCLC
[23] = test system: A498 renal
[24] = test system: HCT-116 colon
[25] = test system: M14 melanoma
[26] = test system: DU-145 prostate
[27] = test system: SF-295 CNS
[28] = test system: IGROV1 ovarian
[29] = test system: SN12C renal
[30] = test system: RPMI-8226 leukemia
[31] = test system: HCT-15 colon
[32] = test system: SR leukemia
[33] = test system: RXF 393 renal
[34] = test system: T-47D breast
[35] = test system: SNB-75 CNS
[36] = test system: MOLT-4 leukemia
[37] = test system: HOP-62 NSCLC
[38] = test system: ACHN renal
[39] = test system: UACC-257 melanoma
[40] = test system: KM12 colon
[41] = test system: SW-620 colon
[42] = test system: TK-10 renal
[43] = test system: NCI-H23 lung
[44] = test system: PC-3 prostate
[45] = test system: SF-539 CNS
[46] = test system: LOX IMVI melanoma
[47] = test system: OVCAR-4 ovarian
[48] = test system: MDA-MB-435
[49] = test system: OVCAR-8 ovarian
[50] = test system: UACC-62 melanoma
[51] = test system: HCC-2998 colon
[52] = test system: 786-0 renal
[53] = test system: SK-MEL-2 melanoma
[54] = test system: SK-MEL-5 melanoma
[55] = test system: UO-31 renal
[56] = test system: CAKI-1 renal
[57] = test system: OVCAR-5 ovarian
[58] = test system: SNB-19 CNS

Work on `[N-]=[N+]=Nc1cccc(-c2n[nH]c(Cl)cc2=O)c1` yielded a TGI [1] greater than 100000 nM, a TGI [2] greater than 100000 nM and a TGI [3] greater than 100000 nM. The TGI [4] was greater than 100000 nM, the TGI [5] was greater than 100000 nM and the TGI [6] was greater than 100000 nM. For the same compound, the TGI [7] was greater than 100000 nM, the TGI [8] was greater than 100000 nM and the TGI [9] was greater than 100000 nM. It also gave a TGI [10] greater than 100000 nM, a TGI [11] greater than 100000 nM and a TGI [12] greater than 100000 nM. For the same compound, the TGI [13] was greater than 100000 nM, the TGI [14] was greater than 100000 nM and the TGI [15] was greater than 100000 nM. It also gave a TGI [16] greater than 100000 nM, a TGI [17] greater than 100000 nM and a TGI [18] greater than 100000 nM. For the same compound, the TGI [19] was greater than 100000 nM, the TGI [20] was greater than 100000 nM and the TGI [21] was greater than 100000 nM. It also gave a TGI [22] greater than 100000 nM, a TGI [23] greater than 100000 nM and a TGI [24] greater than 100000 nM. It also gave a TGI [25] greater than 100000 nM, a TGI [26] greater than 100000 nM and a TGI [27] greater than 100000 nM. The TGI [28] was greater than 100000 nM, the TGI [29] was greater than 100000 nM and the TGI [30] was greater than 100000 nM. The TGI [31] was greater than 100000 nM, the TGI [32] was greater than 100000 nM and the TGI [33] was greater than 100000 nM. For the same compound, the TGI [34] was greater than 100000 nM, the TGI [35] was greater than 100000 nM and the TGI [36] was greater than 100000 nM. For the same compound, the TGI [37] was greater than 100000 nM, the TGI [38] was greater than 100000 nM and the TGI [39] was greater than 100000 nM. For the same compound, the TGI [40] was greater than 100000 nM, the TGI [41] was greater than 100000 nM and the TGI [42] was greater than 100000 nM. For the same compound, the TGI [43] was greater than 100000 nM, the TGI [44] was greater than 100000 nM and the TGI [45] was greater than 100000 nM. The TGI [46] was greater than 100000 nM, the TGI [47] was greater than 100000 nM and the TGI [48] was greater than 100000 nM. It also gave a TGI [49] greater than 100000 nM, a TGI [50] greater than 100000 nM and a TGI [51] greater than 100000 nM. It also gave a TGI [52] greater than 100000 nM.
In the case of `O=c1[nH]nc(-c2nn(-c3ccc(Cl)cc3)cc2O)o1`, the GI50 [1] is reported as 3250 nM, the TGI [1] is reported as greater than 100000 nM and the GI50 [2] is reported as 2020 nM. For the same compound, the TGI [2] was greater than 100000 nM, the GI50 [3] was 25100 nM and the TGI [3] was greater than 100000 nM. The GI50 [4] was 696 nM, the TGI [4] was greater than 100000 nM and the GI50 [5] was 117 nM. It also gave a TGI [5] greater than 100000 nM, a GI50 [6] of 25 nM and a TGI [6] greater than 100000 nM. The GI50 [7] was 472 nM, the TGI [7] was 12500 nM and the GI50 [9] was 303 nM. For the same compound, the TGI [9] was greater than 62100 nM, the GI50 [11] was 61.9 nM and the TGI [11] was 3160 nM. It also gave a GI50 [12] of 91.3 nM, a TGI [12] greater than 100000 nM and a GI50 [13] of 42.9 nM. For the same compound, the TGI [13] was greater than 100000 nM, the GI50 [14] was 280 nM and the GI50 [15] was 4560 nM. For the same compound, the TGI [15] was greater than 50400 nM, the GI50 [53] was 536 nM and the TGI [53] was 46200 nM. It also gave a GI50 [16] of 121 nM, a TGI [16] of 2750 nM and a GI50 [17] of 340 nM. The TGI [17] was greater than 100000 nM, the GI50 [18] was 385 nM and the TGI [18] was greater than 100000 nM. The GI50 [19] was 46 nM, the GI50 [20] was 133 nM and the TGI [20] was 3730 nM. The GI50 [21] was 19.1 nM, the TGI [21] was 219 nM and the GI50 [22] was 92.5 nM. For the same compound, the TGI [22] was 904 nM, the GI50 [54] was 201 nM and the TGI [54] was 1440 nM. The GI50 [23] was 87 nM, the TGI [23] was 464 nM and the GI50 [24] was 71.8 nM. For the same compound, the TGI [24] was 927 nM, the GI50 [25] was 132 nM and the TGI [25] was 13000 nM. It also gave a GI50 [26] of 56.2 nM, a TGI [26] of 1450 nM and a GI50 [27] of 51.8 nM. For the same compound, the TGI [27] was greater than 100000 nM, the GI50 [28] was 117 nM and the TGI [28] was greater than 100000 nM. It also gave a GI50 [29] of 119 nM, a TGI [29] of 5770 nM and a GI50 [30] of 172 nM. The GI50 [55] was 331 nM, the TGI [55] was greater than 34300 nM and the GI50 [31] was 152 nM. The TGI [31] was greater than 100000 nM, the GI50 [32] was 33.4 nM and the TGI [32] was 266 nM. The GI50 [33] was 741 nM, the TGI [33] was greater than 72400 nM and the GI50 [34] was 221 nM. The TGI [34] was greater than 100000 nM, the GI50 [35] was 227 nM and the TGI [35] was greater than 100000 nM. For the same compound, the GI50 [56] was 156 nM, the TGI [56] was 13000 nM and the GI50 [36] was 53.7 nM. The TGI [36] was 944 nM, the GI50 [37] was 99 nM and the TGI [37] was 36000 nM. For the same compound, the GI50 [38] was 142 nM, the TGI [38] was greater than 100000 nM and the GI50 [39] was 610 nM. The TGI [39] was greater than 100000 nM, the GI50 [40] was 134 nM and the GI50 [57] was 499 nM. It also gave a TGI [57] greater than 100000 nM, a GI50 [41] of 470 nM and a TGI [41] greater than 100000 nM. For the same compound, the GI50 [42] was 37.6 nM, the TGI [42] was 276 nM and the GI50 [43] was 108 nM. It also gave a TGI [43] of 673 nM, a GI50 [44] of 401 nM and a TGI [44] greater than 100000 nM. It also gave a GI50 [45] of 74.1 nM, a TGI [45] of 2240 nM and a GI50 [58] of 187 nM. It also gave a TGI [58] greater than 100000 nM, a GI50 [46] of 194 nM and a TGI [46] greater than 43300 nM. The TGI [47] was greater than 100000 nM, the GI50 [48] was 20.5 nM and the GI50 [49] was 317 nM. The TGI [49] was greater than 100000 nM, the GI50 [50] was 166 nM and the TGI [50] was 2820 nM. For the same compound, the GI50 [51] was 238 nM, the TGI [51] was 3500 nM and the GI50 [52] was 519 nM. For the same compound, the TGI [52] was 36500 nM.
